# Data published in a melting point compilation (Tetko et al.; mined from patent text by program, amines drawn as free bases though some values may be those of a salt).
row,SMILES,melting point
1,CC(C)Cn1c(=O)n(C)c(=O)c2c(SC(C)C)c(C(=O)c3nc4ccccc4n3C)sc21,166 to 169 °C
2,COc1cc(N)c(Cl)cc1C(=O)N[C@H]1CCN(CCNc2nccs2)C[C@H]1OC (relative stereo),141 °C
3,ClCc1ccc(-c2ccccc2)nc1,95 to 96 °C
4,CP1(=O)c2ccccc2CN1c1cccc(C(F)(F)F)c1 (stereo not given),161 to 163 °C
5,CC(C)COC(=O)Nc1cc(F)cc(F)c1,71 to 74 °C
6,CNc1nc(N)nc2c1ncn2C1OC(CO)C(O)C1F (stereo not given),172 °C
7,O=C1Nc2cccc(Cl)c2C(=O)N2C[C@H](O)C[C@@H]12,284 to 287 °C
8,CNC1=NN(C(=O)C(C)(C)C)C(C)(C)S1,162 to 164 °C
9,Nc1ccc(C(=O)OCCCN2CCOCC2)c(N)c1,96 °C
10,CC(=Cc1ccc2[nH]ccc2c1)C(=O)O,207 to 209 °C
11,CCOC(=O)C1=COc2cc(C(C)(C)C)c(O)cc2O1,222 °C
12,CCCCCCCCCC(=O)Nc1ccc(S(=O)(=O)Nc2nnc(S(N)(=O)=O)s2)cc1,242 to 243 °C
13,CCSc1ncc(S(N)(=O)=O)s1,95 to 96 °C
14,C=CCOc1cccc2c1C(=O)OC2=O,115 to 117 °C
15,CCCCCCCCCCCC1=NCCO1,71 to 74 °C
16,CN1CCN(Cc2c(-c3ccc4sc(=O)n(C)c4c3)nc3ccccn23)CC1,191 to 193 °C
17,Cc1nccn1CCCCC(=O)NCc1ccc(Cl)cc1,72 to 75 °C
18,CN(C)C=C1CCN(C(=O)c2ccc([N+](=O)[O-])cc2)c2ccccc2C1=O,180 to 183 °C
19,COc1c(C)c2c(c(O)c1C/C=C(\C)C(CC(=O)O)OC)C(=O)OC2 (stereo not given),133 to 135 °C
20,Cc1ccc2c(=O)n(CCCN3CC=C(c4ccc(Cl)cc4)CC3)c(=O)[nH]c2c1,199 to 201 °C
21,CNCC(O)c1ccc(Br)cc1 (stereo not given),91.5 to 93.7 °C
22,CN1CCC2(CC1)c1ccccc1Sc1c(O)cccc12,180 to 182 °C
23,Nc1c(-c2cccc(Oc3ccccc3)c2)cnc2ncnn12,248 to 250 °C
24,Fc1ccc2c(c1)nc(Cl)c1nncn12,305 to 308 °C
25,Cc1ccnc2c1C(=O)c1cc([N+](=O)[O-])ccc1-2,225 to 227 °C
26,COc1nc(C)c(C)nc1NC(=S)N1CCN(c2cc(C)cc(C)c2)CC1,160 to 162 °C
27,O=C(c1ccncc1)N1CCN(Cc2ccc3c(c2)-c2[nH]nc(-c4ccsc4)c2C3)CC1,168 to 170 °C
28,CCCCn1c(=O)c(C(=O)O)c(-c2ccc(Br)cc2)c2cccnc21,158 to 160 °C

# More lines, now with the values ahead:
row,melting point,SMILES
1,96.5 to 98 °C,COc1ccc(Oc2ccc3ccccc3n2)cc1
2,139 to 140 °C,CSc1ccc(N(C)S(=O)(=O)c2ccc(C)cc2)c(C#N)c1
3,36 to 37 °C,CCC(C)(C)c1ccc(OCCCCNC(=O)CS(=O)(=O)c2ccc([N+](=O)[O-])cc2)c(C(C)(C)CC)c1
4,94 to 96 °C,CCOC(=O)C(Cc1ccc(NCc2ccc3cc(OS(C)(=O)=O)ccc3c2)cc1)OC (stereo not given)
5,276 to 278 °C,C=C1SC(=O)N(c2ccc3cc(-c4ccc(O)c(C(C)(C)C)c4)ccc3c2)C1=O
6,191 to 193 °C,CC1CCCC1(Oc1ccc(CC(=O)c2ccc3c(c2)CCC3)cc1)C(=O)O (stereo not given)
7,78 to 81 °C,C[Si](C)(C)CCCCOC(=O)CSc1cc(Oc2ccc(C(F)(F)F)cc2Cl)ccc1[N+](=O)[O-]
8,217 to 219 °C,O=C(NC(=O)c1cccs1)NC1CCNC(Cc2ccc3ccccc3c2)C1 (stereo not given)
9,112 °C,CCC(CC)C1CC(=O)C(C(=O)NS(=O)(=O)c2ccc(C)cc2)C(=O)C1 (stereo not given)
10,173 to 174 °C,Cc1sc(C(=O)OCc2ccccc2)cc1NC(=O)Cc1ccccc1
11,67.3 to 68.7 °C,COc1cccc(-c2cc(C(=O)NCCCCCCCCc3ccccc3)cc(-c3cccc(OC)c3OCC(=O)O)c2)c1
12,240 to 244 °C,CCCn1c(COCC)nc2c(N)nc3ccc(OC4CCN(S(C)(=O)=O)CC4)cc3c21
